According to patent publication US20060115458A1, “Material for repairing biological tissues, product for repairing biological tissues, and method of manufacturing material for repairing biological tissues” (OLYMPUS CORPORATION, priority 2004, published 2006):

How the values were obtained:
[1] = test system: normal human osteoblast NHOst; test: Proliferation rate of osteoblasts cultured with metal salts (TetraColor ONE); type: cell-based; conditions: as concentration became higher; 2 weeks culture; control group = 100%; FIG. 1
Procedure: (§1) As a medium, α-MEM medium containing β-sodium glycerophosphate and fetal calf serum was used.
(§2) The cell culturing method was such that about 1×10^4 osteoblasts were seeded in each well in a collagen type I coated 24 well microplate. Then after 24 hours the product was replaced with 1 ml of medium containing a prescribed concentration of metal salts, after which it was further replaced with a medium containing the same concentration of metal salts three times per week, and the culturing was performed for 2 weeks.
The proliferation rate was measured as follows. 1 ml of medium containing 20 μl/ml of living cell measuring reagent, TetraColor ONE (Seikagaku Corporation) was added into each well. After 2 hours of culturing, the absorbency at 450 nm (control wavelength was 600 nm) was measured. The proliferation rate of the respective experimental groups was obtained assuming that the absorbancy of the control group was 100%.

[2] = test system: normal human osteoblast NHOst; test: Differentiation rate of osteoblasts cultured with metal salts (calcium content per well); type: cell-based; conditions: as concentration became higher; 2 weeks culture; calcium content of control group = 100%; FIG. 2
Procedure: as §1, §2
The differentiation rate was measured as follows. 1 ml of 0.1N hydrochloric acid was added into each well and left at room temperature for 15 hours to obtain the hydrochloric acid extract of each well. Using calcium C-Test Wako (Wako Pure Chemical Industries, Ltd.), 10 μl of hydrochloric acid extract was added with 1 ml of 0.88 M monoethanolamine buffer (pH 11.0), then 100 μl of 0.63 mM ortho-cresolphthalein complexone and 100 μl of 69 mM 8-quinolinol. After 15 minutes of reaction at room temperature, the absorbancy at 570 nm was measured to determine the calcium content per well. The differentiation rate of the respective experimental groups was obtained assuming that the calcium content of the control group was 100%.

`[Cl][Nb]([Cl])([Cl])([Cl])[Cl]` [niobium pentachloride] was tested, and the “proliferation rate of osteoblasts” value [1] was “increased the proliferation rate” and the “differentiation rate of osteoblasts” value [2] was “increased the differentiation rate”.
